Laboratory results reported in ChEMBL document CHEMBL3885861, “Open TG-GATES”.

Species: Rattus norvegicus
Experiment: Open TG-GATES - Regimen: Single
Type: toxicity, organism-based, Sprague-Dawley
Parameters: regimen Single, gender Male, age 6 weeks
Settings: in vivo, po, route gavage; for Fbg / Hb / Ht / Lym / MCH / MCHC / MCV / Mono / Neu / PT / Plat / RBC / Ret / WBC / APTT / Bas / Eos: tissue Blood; for KIDNEY_L / KIDNEY_R / KIDNEY_TOTAL: tissue Kidney; for LIVER: tissue Liver; for A/G / ALP / ALT / AST / BUN / CRE / Ca / Cl / DBIL / GLC / IP / K / LDH / Na / PL / RALB / TBIL / TC / TG / TP / gamma-GTP: tissue Plasma
[1] = 300 mg/kg, 6 h, dose level Middle
[2] = 300 mg/kg, 9 h, dose level Middle
[3] = 300 mg/kg, 24 h, dose level Middle
[4] = 600 mg/kg, 3 h, dose level High
[5] = 600 mg/kg, 6 h, dose level High
[6] = 600 mg/kg, 9 h, dose level High
[7] = 600 mg/kg, 24 h, dose level High

## O=C1CN(/N=C/c2ccc([N+](=O)[O-])o2)C(=O)N1 [NITROFURANTOIN]
[1]
  Fbg: 235.8 mg/dL
  Hb: 13.2 g/dL
  Ht: 40%
  Lym: 70.6%
  MCH: 21.1 pg
  MCHC: 33%
  MCV: 63.9 fL
  Mono: 8%
  Neu: 20%
  PT: 11.7 s
  Plat: 127.7 x10_4/uL
  RBC: 625.2 x10_4/ul
  Ret: 7.7%
  WBC: 80.2 x10_2/uL
  KIDNEY_L: 0.9 g
  KIDNEY_R: 0.9 g
  KIDNEY_TOTAL: 1.9 g
  LIVER: 8.7 g
  A/G: 2.4
  ALP: 1363.8 IU/L
  ALT: 30.6 IU/L
  AST: 63.4 IU/L
  BUN: 10 mg/dL
  CRE: 0.5 mg/dL
  Ca: 11.5 mg/dL
  Cl: 103.8 meq/L
  DBIL: 0.004 mg/dL
  GLC: 192.4 mg/dL
  IP: 9.1 mg/dL
  K: 4.2 meq/L
  LDH: 69 IU/L
  Na: 137.2 meq/L
  PL: 158.2 mg/dL
  RALB: 4.1 g/dL
  TBIL: 0.036 mg/dL
  TC: 113 mg/dL
  TG: 36.2 mg/dL
  TP: 5.8 g/dL
  gamma-GTP: 0.2 IU/L
[2]
  TERMINAL_BW: 204.4 g
  APTT: 17 s
  Bas: 0%
  Eos: 1.2%
  Fbg: 234.8 mg/dL
  Hb: 13.3 g/dL
  Ht: 40.4%
  Lym: 70.6%
  MCH: 21.5 pg
  MCHC: 33%
  MCV: 64.9 fL
  Mono: 7.8%
  Neu: 20.6%
  PT: 11.7 s
  Plat: 116.3 x10_4/uL
  RBC: 622.6 x10_4/ul
  Ret: 6.4%
  WBC: 62.7 x10_2/uL
  KIDNEY_L: 0.9 g
  KIDNEY_R: 1 g
  KIDNEY_TOTAL: 1.9 g
  LIVER: 8.9 g
  A/G: 2.2
  ALP: 1126.4 IU/L
  ALT: 29.6 IU/L
  AST: 59.4 IU/L
  BUN: 12.4 mg/dL
  CRE: 0.4 mg/dL
  Ca: 11.4 mg/dL
  Cl: 106 meq/L
  DBIL: 0.008 mg/dL
  GLC: 210 mg/dL
  IP: 8.5 mg/dL
  K: 4.4 meq/L
  LDH: 61.8 IU/L
  Na: 138.6 meq/L
  PL: 143.8 mg/dL
  RALB: 4 g/dL
  TBIL: 0.038 mg/dL
  TC: 88.6 mg/dL
  TG: 62.8 mg/dL
  TP: 5.9 g/dL
  gamma-GTP: 1 IU/L
[3]
  TERMINAL_BW: 197.5 g
  APTT: 16 s
  Bas: 0%
  Eos: 1.6%
  Fbg: 229.2 mg/dL
  Hb: 13.8 g/dL
  Ht: 42.2%
  Lym: 82%
  MCH: 21.3 pg
  MCHC: 32.6%
  MCV: 65.3 fL
  Mono: 4.2%
  Neu: 12.2%
  PT: 11.6 s
  Plat: 128 x10_4/uL
  RBC: 647 x10_4/ul
  Ret: 6.2%
  WBC: 69.5 x10_2/uL
  KIDNEY_L: 1 g
  KIDNEY_R: 1 g
  KIDNEY_TOTAL: 2.1 g
  LIVER: 8.1 g
  A/G: 2.2
  ALP: 1379.2 IU/L
  ALT: 32.6 IU/L
  AST: 62.6 IU/L
  BUN: 15.4 mg/dL
  CRE: 0.4 mg/dL
  Ca: 11.1 mg/dL
  Cl: 107.8 meq/L
  DBIL: 0.01 mg/dL
  GLC: 194.2 mg/dL
  IP: 9.1 mg/dL
  K: 4.6 meq/L
  LDH: 73.4 IU/L
  Na: 140.8 meq/L
  PL: 150.8 mg/dL
  RALB: 3.8 g/dL
  TBIL: 0.028 mg/dL
  TC: 85.8 mg/dL
  TG: 118.6 mg/dL
  TP: 5.6 g/dL
  gamma-GTP: 0 IU/L
[4]
  TERMINAL_BW: 206.4 g
  APTT: 16.4 s
  Bas: 0%
  Eos: 1%
  Fbg: 233.2 mg/dL
  Hb: 13.2 g/dL
  Ht: 40.3%
  Lym: 71%
  MCH: 21.1 pg
  MCHC: 32.8%
  MCV: 64.4 fL
  Mono: 6.4%
  Neu: 22.4%
  PT: 12.1 s
  Plat: 121.3 x10_4/uL
  RBC: 625.6 x10_4/ul
  Ret: 7.8%
  WBC: 72.9 x10_2/uL
  KIDNEY_L: 0.9 g
  KIDNEY_R: 1 g
  KIDNEY_TOTAL: 1.9 g
  LIVER: 8.8 g
  A/G: 2.2
  ALP: 1226.6 IU/L
  ALT: 36 IU/L
  AST: 64.4 IU/L
  BUN: 12 mg/dL
  CRE: 0.5 mg/dL
  Ca: 11.6 mg/dL
  Cl: 104 meq/L
  DBIL: 0 mg/dL
  GLC: 198.4 mg/dL
  IP: 10.1 mg/dL
  K: 4 meq/L
  LDH: 91.2 IU/L
  Na: 139.6 meq/L
  PL: 146 mg/dL
  RALB: 4.1 g/dL
  TBIL: 0.034 mg/dL
  TC: 90.8 mg/dL
  TG: 54.8 mg/dL
  TP: 5.9 g/dL
  gamma-GTP: 1 IU/L
[5]
  TERMINAL_BW: 204.9 g
  APTT: 16 s
  Bas: 0%
  Eos: 1%
  Fbg: 228.8 mg/dL
  Hb: 13.7 g/dL
  Ht: 41.9%
  Lym: 74.8%
  MCH: 20.9 pg
  MCHC: 32.8%
  MCV: 63.9 fL
  Mono: 5.8%
  Neu: 18.6%
  PT: 11.8 s
  Plat: 115.3 x10_4/uL
  RBC: 656.6 x10_4/ul
  Ret: 7.9%
  WBC: 63.6 x10_2/uL
  KIDNEY_L: 0.9 g
  KIDNEY_R: 0.9 g
  KIDNEY_TOTAL: 1.9 g
  LIVER: 8.7 g
  A/G: 2.4
  ALP: 1281.4 IU/L
  ALT: 34.6 IU/L
  AST: 64.4 IU/L
  BUN: 12.6 mg/dL
  CRE: 0.5 mg/dL
  Ca: 11.5 mg/dL
  Cl: 104.2 meq/L
  DBIL: 0.008 mg/dL
  GLC: 193 mg/dL
  IP: 9 mg/dL
  K: 4.3 meq/L
  LDH: 74.4 IU/L
  Na: 137.8 meq/L
  PL: 144.2 mg/dL
  RALB: 4.1 g/dL
  TBIL: 0.04 mg/dL
  TC: 99.6 mg/dL
  TG: 33 mg/dL
  TP: 5.8 g/dL
  gamma-GTP: 0 IU/L
[6]
  TERMINAL_BW: 205.1 g
  APTT: 16.6 s
  Bas: 0%
  Eos: 1%
  Fbg: 229 mg/dL
  Hb: 13.5 g/dL
  Ht: 41.1%
  Lym: 71.4%
  MCH: 21.2 pg
  MCHC: 32.9%
  MCV: 64.6 fL
  Mono: 8%
  Neu: 19.8%
  PT: 11.7 s
  Plat: 127.2 x10_4/uL
  RBC: 636.6 x10_4/ul
  Ret: 7.2%
  WBC: 77 x10_2/uL
  KIDNEY_L: 1 g
  KIDNEY_R: 0.9 g
  KIDNEY_TOTAL: 1.9 g
  LIVER: 8.9 g
  A/G: 2.3
  ALP: 1100.8 IU/L
  ALT: 28.6 IU/L
  AST: 59.4 IU/L
  BUN: 12.6 mg/dL
  CRE: 0.4 mg/dL
  Ca: 11.3 mg/dL
  Cl: 104.2 meq/L
  DBIL: 0.01 mg/dL
  GLC: 194 mg/dL
  IP: 9.2 mg/dL
  K: 4.4 meq/L
  LDH: 82.6 IU/L
  Na: 137.4 meq/L
  PL: 160.4 mg/dL
  RALB: 4.1 g/dL
  TBIL: 0.042 mg/dL
  TC: 104.4 mg/dL
  TG: 46 mg/dL
  TP: 5.9 g/dL
  gamma-GTP: 1 IU/L
[7]
  TERMINAL_BW: 201.7 g
  APTT: 16.3 s
  Bas: 0%
  Eos: 1.6%
  Fbg: 238 mg/dL
  Hb: 13.7 g/dL
  Ht: 41.6%
  Lym: 78.8%
  MCH: 21.2 pg
  MCHC: 33%
  MCV: 64.4 fL
  Mono: 8.2%
  Neu: 11.8%
  PT: 11.8 s
  Plat: 131.1 x10_4/uL
  RBC: 647 x10_4/ul
  Ret: 6.5%
  WBC: 54.6 x10_2/uL
  KIDNEY_L: 1 g
  KIDNEY_R: 1 g
  KIDNEY_TOTAL: 1.9 g
  LIVER: 8.3 g
  A/G: 2.2
  ALP: 1073.2 IU/L
  ALT: 21.4 IU/L
  AST: 54.8 IU/L
  BUN: 11.4 mg/dL
  CRE: 0.5 mg/dL
  Ca: 11.4 mg/dL
  Cl: 108 meq/L
  DBIL: 0.01 mg/dL
  GLC: 170.2 mg/dL
  IP: 8.9 mg/dL
  K: 4.1 meq/L
  LDH: 91.2 IU/L
  Na: 140.2 meq/L
  PL: 138.4 mg/dL
  RALB: 4 g/dL
  TBIL: 0.04 mg/dL
  TC: 95.6 mg/dL
  TG: 42.6 mg/dL
  TP: 5.9 g/dL
  gamma-GTP: 0 IU/L
